Series [1] concerns stress-induced gastric ulcer. Kind of series: Protective effect on gastric ulcer induced by restraint plus water-immersion stress in rats. The settings on record: for Ulcer index: mean ± S.E. It counts as in vivo, Male Sprague-Dawley rats. The procedure:
1.1 Protective efrfect on gastric ulcer induced by restraint plus water-immersion stress in rats
Male Sprague-Dawley rats weighing 250-300 g wer eused in groups of 5-24. The animals were given the compounds by the oral route after fastin overnight. Immediately, under light ether anesthesia they were placed in a restraint box and immersed in water at 20° C. for 6 to 7 hours. Then the animals were sacrificed, and their stomachs were isolated, inflated with 4 ml of 1 % formalin for 10 minutes, opened along the greater cruvature, and examined for the rpesence of agstric erosions. The longest axis of each erosion induced on the glandular section of the stomach was measured, and the sum of the lengths was defined as an ulcer index.

The test system of series [2] is ethanol-induced gastric ulcer. The experiment in a line: Protective effect on ethanol-induced gastric ulcer in rats. It counts as in vivo, Male Sprague-Dawley rats. The settings on record: for Ulcer index: mean ± S.E. The procedure:
1.2 Protective effect on ethanol-induced gastric ulcer in rats
Male Sprague-Dawley rats weighing 250-300 g were used in groups of 5-21. After fasting overnight, the animals were given orally the compounds. Thirty minutes later they received absolute ethanol (1 ml/body) orally and were sacrificed after 60 minutes. The stomach was removed and examined for erosions. The ulcer index was obtained in the same way as under 1.1.

A short description of series [3]: in vivo. Conditions: mouse, mice.
Series [4] relates to gastric hemorrhage. The experiment in a line: Inhibitory effect on gastric hemorrhage in rats (pylorus ligation, 2-deoxy-D-glucose plus indomethacin). The class given is in vivo, Male Sprague-Dawley rats. Conditions: for Amount of hemoglobin: mean ± S.E.; for effect on gastric hemorrhage (in words): rats. On the procedure: 1.3 Inhibitory effect on gastric hemorrhage in rats
The method of Maeda-Hagiwara and Watanabe (Eur. J. Pharmacol. 89, 243-250, 1983) was used. Male Sprague-Dawley rats weighing 250-300 g were employed in groups of 10-14. After 24 hours fasting, the pylorus was ligated under light ether anesthesia. Then, 200 mg/kg of 2-deoxy-D-glucose was administered intravenously in combination with 40 mg/kg of indomethacin suspended in 0.5 % carboxymethylcellulose by the subcutaneous route. After 1 hour the test compounds wer einjected intraperitoneally. Two hours later, the animals were exsanguinated under ether anesthesia and their stomachs were isolated. Gastric juice was collected and filtered. The amount of discharged blood was expressed as that of hemoglobin in mg per rat.

Series [5] in a line: in vivo. Conditions: rat, rats.
In series [6] the test system is rats. Kind of series: 3-month oral toxicity study in rats. It counts as in vivo. The settings on record: 3 months. The procedure:
Compound 2 was administered orally to rats at 150 and 50 mg/kg/day for 3 months. This study included: observation of toxic signs during the treatment; macroscopic and microscopic examinations of main organs including the brain, heart, liver, kidney, bone marrow, adrenal, and lung; and biochemical tests of the blood and urine.

In series [7] the test system is peptic ulcer disease. Kind of series: Antiulcer effect, general statements. Conditions: in vivo.
The conditions of series [8]: c.f. U.S. Pat. No. 4,289,776; cited from earlier work.
Series [9] is described as follows: Toxicity, general statements. Conditions: in vivo.
Series [10] concerns peptic ulcer disease. The settings on record: Vorobyev and Samsonov, Ter. Ark. 57, 52-55, 1985; cited from earlier work.
Setting [11] is: Table 3 (efficacy comparison), 10 mg/kg po.
Where [12] appears, read: Table 5 (efficacy comparison), 10 mg/kg po.
The mark [13] stands for this setting: ip, intraperitoneal administration.

Consider 4 compounds from patent US4845102A, “Therapeutic agent for the treatment of peptic ulcer disease” (Hoechst Japan Limited, priority 1986, dated 1989).

Molecules are shown by their SMILES.

Usually Inhibition stands for how much of the control response was suppressed. For orientation: LD50 means the dose at which mortality reaches 50%. High values mean lower toxicity, low ones greater toxicity. With `CCn1cnc2c1c(=O)n(CCCCC(C)=O)c(=O)n2C` [Compound 1], the Inhibition in [1] (setting [11]) is given as 77.2%; in series [2] (setting [12]) it was 84.6%. Further, the Ulcer index in series [1] (setting [11]) was determined as 4.5 ± 0.9 mm; in [2] (setting [12]) it was 25.3 ± 10.9 mm. The compound also came in with an LD50 in series [3] (setting [13]) of 250 to 500 mg/kg.

Turning to `CCCn1cnc2c1c(=O)n(CCCCC(C)=O)c(=O)n2C` [Compound 2, 1,2,3,6-tetrahydro-3-methyl-1-(5-oxohexyl)-7-propyl-purine-2,6-dione], the Inhibition in series [1] (Table 2, 5 mg/kg po) amounted to 39.4%; in [1] (Table 2, 10 mg/kg po) it was 64.3%; in series [1] (Table 2, 25 mg/kg po), 75.6%; in series [1] (setting [11]), 56.3%; in series [2] (Table 4, 10 mg/kg po), 61.5%; in series [2] (Table 4, 25 mg/kg po) it was 75.4%. Besides, the Inhibition in series [2] (Table 4, 50 mg/kg po) is recorded as 89.7%; in series [2] (setting [12]) it was 86.9%. Further, the Ulcer index in series [1] (Table 2, 5 mg/kg po) is recorded as 22.6 ± 9.8 mm; in [1] (Table 2, 10 mg/kg po) it was 13.3 ± 5.4 mm; in [1] (Table 2, 25 mg/kg po), 9.1 ± 3.1 mm; in [1] (setting [11]), 8.6 ± 2.3 mm; in series [2] (Table 4, 10 mg/kg po), 51.0 ± 13.2 mm; in series [2] (Table 4, 25 mg/kg po), 32.6 ± 9.1 mm. The Ulcer index in [2] (Table 4, 50 mg/kg po) was 13.6 ± 9.3 mm; in series [2] (setting [12]), 21.6 ± 4.6 mm. For the same compound, in series [1] (versus pentoxifylline), the “effectiveness relative to pentoxifylline in improving stress-induced gastric ulcers” value is 2 to 3 times. Besides, the Amount of hemoglobin in [4] (12.5 mg/kg i.p.) turned out to be 27.0 ± 3.0 mg/rat; in [4] (25 mg/kg i.p.) it was 14.4 ± 1.4 mg/rat; in series [4] (50 mg/kg i.p.), 12.5 ± 1.6 mg/rat. In [4], the “effect on gastric hemorrhage (in words)” value is on record as “inhibitory effects on gastric hemorrhage”. The LD50 is 296 mg/kg in series [3] (setting [13]); 168 mg/kg in series [3] (intravenous injection); 900 mg/kg in series [3] (oral dosing); 180 mg/kg in [5] (intravenous injection); 1150 mg/kg in series [5] (oral dosing). Moreover, the “toxic signs, macroscopic and microscopic organ examinations, biochemical tests of blood and urine” value is recorded as “no abnormalities at either level of treatment” in series [6] (50 mg/kg/day) and “no abnormalities at either level of treatment except that slight salivation occurred at 150 mg/kg/day” in series [6] (150 mg/kg/day). Also, the “antiulcer effect (in words)” value in series [7] was “improving effects on gastric ulcer”. Further, the “pharmacological effects shown previously (in words)” value in [8] is “dilate cerebral blood vessels, improve cerebral energy metabolism, red blood cell deformability, and cerebral edema, and decrease blood viscosity”. Besides, in series [9], the “toxicity (in words)” value is “low toxicity”.

Turning to `CCCn1cnc2c1c(=O)n(CCCC(C)=O)c(=O)n2C` [Compound 3], in series [1] (setting [11]), the Inhibition is listed as 67.0% and the Ulcer index stood at 6.5 ± 1.6 mm. The LD50 in [3] (setting [13]) lay in the range of 300 to 600 mg/kg.

On to `CC(=O)CCCCn1c(=O)c2c(ncn2C)n(C)c1=O` [Pentoxifylline, 1,2,3,6-tetrahydro-3,7-dimethyl-1-(5-oxohexyl)-purine-2,6-dione, reference compound], for which the Inhibition in series [1] (Table 2, 10 mg/kg po) amounted to 25.8%; in [1] (Table 2, 25 mg/kg po) it was 52.0%; in [1] (Table 2, 50 mg/kg po), 83.9%; in series [1] (setting [11]), 12.7%; in series [2] (Table 4, 10 mg/kg po), 50.3%; in [2] (Table 4, 25 mg/kg po) it was 63.9%. The Inhibition in [2] (Table 4, 50 mg/kg po) was found to be 85.9%; in series [2] (setting [12]), 78.8%. The Ulcer index in [1] (Table 2, 10 mg/kg po) is 24.4 ± 4.0 mm; in series [1] (Table 2, 25 mg/kg po) it was 15.8 ± 4.1 mm; in series [1] (Table 2, 50 mg/kg po), 5.3 ± 1.2 mm; in series [1] (setting [11]), 17.2 ± 5.6 mm; in series [2] (Table 4, 10 mg/kg po), 65.8 ± 12.1 mm; in series [2] (Table 4, 25 mg/kg po), 47.8 ± 15.3 mm. Further, the Ulcer index stood at 18.7 ± 6.2 mm in series [2] (Table 4, 50 mg/kg po) and 34.9 ± 10.9 mm in series [2] (setting [12]). Further, the Amount of hemoglobin in [4] (25 mg/kg i.p.) is 19.6 ± 2.0 mg/rat; in [4] (50 mg/kg i.p.), 17.3 ± 2.3 mg/rat. Further, the “effect on gastric hemorrhage (in words)” value in series [4] was “did not have a statistically significant effect”. In addition, the “antiulcer effect reported in the literature (in words)” value in series [10] is given as “antiulcer effects”.
